Data as given in publication PMC4350332 (Oncotarget, 2014).

Columns and labels:
[1] = tested on: PDK; conditions: stated in discussion, no own experiment; cited from earlier work
[2] = target: PDK-1 (Homo sapiens, UniProt Q15118); assay: PDK-1 fluorescence polarization assay (fluorescein-labelled ATP site probe); type: binding; parameters: PDK-1: residues 30-436; made in house; host or cells: E. coli BL21; conditions: titration with a probe concentration of 10 nM; read-out: Kd of PDK-1 protein with the probe
Protocol: carbamoyl]-2-(6-hydroxy-3-oxo-3H-xanthen-9-yl)benzoic acid), which binds to the ATP site of PDK resulting in an increase in anisotropy.
The HSP-90ß FP assay was conducted as previously described.

Sequence of PDK-1 (Q15118 30-436): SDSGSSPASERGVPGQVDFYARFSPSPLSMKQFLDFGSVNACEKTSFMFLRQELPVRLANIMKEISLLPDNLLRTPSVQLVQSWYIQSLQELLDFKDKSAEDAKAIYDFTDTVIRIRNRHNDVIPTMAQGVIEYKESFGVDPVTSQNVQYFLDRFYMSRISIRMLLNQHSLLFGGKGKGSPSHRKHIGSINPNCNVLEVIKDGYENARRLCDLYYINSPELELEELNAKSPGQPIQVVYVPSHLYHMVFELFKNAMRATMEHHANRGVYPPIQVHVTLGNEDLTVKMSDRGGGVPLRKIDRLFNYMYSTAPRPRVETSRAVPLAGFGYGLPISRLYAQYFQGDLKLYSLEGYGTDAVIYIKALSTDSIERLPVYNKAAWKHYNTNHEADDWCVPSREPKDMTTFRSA

O=C(O)C(Cl)Cl [DCA]
Concentrations required to observe modulation of glycolytic activity and cytotoxicity [1]: 5000 to 20000 µM

CCNC(=O)c1noc(-c2cc(Cl)c(O)cc2O)c1-c1ccc(CNC(=O)c2ccc(-c3c4ccc(=O)cc-4oc4cc(O)ccc34)c(C(=O)O)c2)cc1 [VER-160364, 5-[({4-[5-(5-chloro-2,4-dihydroxyphenyl)-3-(ethylcarbamoyl)-1,2-oxazol-4-yl]phenyl}methyl)carbamoyl]-2-(6-hydroxy-3-oxo-3H-xanthen-9-yl)benzoic acid]
Kd [2]: 30 nM
